Experimental data as given in patent publication EP0620225B1, “Cephalosporin derivatives” (Basilea Pharmaceutica AG, priority 1993, dated 1994).
Values after ≈ are worked out from the molar mass of the structure shown.

What was measured:
E.faecalis [1] = test: In vitro activity against selected species (MIC50, MIC90, range); format: cell-based; conditions: Enterococcus faecalis, medium IsoB
S.pyogenes B15 = test: Antibacterial spectrum (MIC), agar dilution; format: cell-based; conditions: Streptococcus pyogenes, read-out: MIC
Protocol: (§1) In vitro activity was determined by minimum inhibitory concentration in a microorganism spectum by the agar dilution method in Mueller Hinton agar.

S.viridans group 016 = test: Antibacterial spectrum (MIC), agar dilution; format: cell-based; conditions: Streptococcus viridans, read-out: MIC
Protocol: as §1

C.freundii 43 = test: Antibacterial spectrum (MIC), agar dilution; format: cell-based; conditions: Citrobacter freundii, read-out: MIC
Protocol: as §1

H.influenzae 1 = test: Antibacterial spectrum (MIC), agar dilution; format: cell-based; conditions: Haemophilus influenzae, read-out: MIC
Protocol: as §1

P.vulgaris 1028 = test: Antibacterial spectrum (MIC), agar dilution; format: cell-based; conditions: Proteus vulgaris, read-out: MIC
Protocol: as §1

S.pneumoniae Q19 = test: Antibacterial spectrum (MIC), agar dilution; format: cell-based; conditions: Streptococcus pneumoniae, read-out: MIC
Protocol: as §1

E.faecalis 6 = test: Antibacterial spectrum (MIC), agar dilution; format: cell-based; conditions: Enterococcus faecalis, read-out: MIC
Protocol: as §1

E.cloacae 908SSi = test: Antibacterial spectrum (MIC), agar dilution; format: cell-based; conditions: Enterobacter cloacae, read-out: MIC
Protocol: as §1

S.aureus 734 MRSA = test: Antibacterial spectrum (MIC), agar dilution; format: cell-based; conditions: Staphylococcus aureus, read-out: MIC
Protocol: as §1

S.marcescens 69438 = test: Antibacterial spectrum (MIC), agar dilution; format: cell-based; conditions: Serratia marcescens, read-out: MIC
Protocol: as §1

Acinetobacter sp.51-156 = test: Antibacterial spectrum (MIC), agar dilution; format: cell-based; conditions: SP.51156, read-out: MIC
Protocol: as §1

K.pneumoniae 418 = test: Antibacterial spectrum (MIC), agar dilution; format: cell-based; conditions: Klebsiella pneumoniae, read-out: MIC
Protocol: as §1

P.aeruginosa 27853 = test: Antibacterial spectrum (MIC), agar dilution; format: cell-based; conditions: Pseudomonas aeruginosa, read-out: MIC
Protocol: as §1

C.freundii 902 = test: Antibacterial spectrum (MIC), agar dilution; format: cell-based; conditions: Citrobacter freundii, read-out: MIC
Protocol: as §1

E.cloacae 908R = test: Antibacterial spectrum (MIC), agar dilution; format: cell-based; conditions: Enterobacter cloacae, read-out: MIC
Protocol: as §1

N.meningitidis 69480 = test: Antibacterial spectrum (MIC), agar dilution; format: cell-based; conditions: Neisseria meningitidis, read-out: MIC
Protocol: as §1

S.aureus 6538 = test: Antibacterial spectrum (MIC), agar dilution; format: cell-based; conditions: Staphylococcus aureus, read-out: MIC
Protocol: as §1

E.coli 25922 = test: Antibacterial spectrum (MIC), agar dilution; format: cell-based; conditions: Escherichia coli, read-out: MIC
Protocol: as §1

S.agalactiae QK44 = test: Antibacterial spectrum (MIC), agar dilution; format: cell-based; conditions: Streptococcus agalactiae, read-out: MIC
Protocol: as §1

P.mirabilis 2117 = test: Antibacterial spectrum (MIC), agar dilution; format: cell-based; conditions: Proteus mirabilis, read-out: MIC
Protocol: as §1

M.morganii 6H-137 = test: Antibacterial spectrum (MIC), agar dilution; format: cell-based; conditions: Morganella morganii, 6H137, read-out: MIC
Protocol: as §1

M.catarrhalis RA21 = test: Antibacterial spectrum (MIC), agar dilution; format: cell-based; conditions: Moraxella catarrhalis, read-out: MIC
Protocol: as §1

X.maltophilia 1AC739 = test: Antibacterial spectrum (MIC), agar dilution; format: cell-based; conditions: Stenotrophomonas maltophilia, read-out: MIC
Protocol: as §1

S.aureus MSSA = test: In vitro activity against selected species (MIC50, MIC90, range); format: cell-based; conditions: Staphylococcus aureus, medium MHB (Mueller Hinton Broth)
S.pneumoniae PEN-R = test: as above; format: cell-based; conditions: Streptococcus pneumoniae; for MIC: MIC range
E.faecium = test: In vitro activity against selected species (MIC50, range); format: cell-based; conditions: Enterococcus faecium, medium MHA
Protocol: as §1

S.viridans group = test: In vitro activity against selected species (MIC50, MIC90, range); format: cell-based; conditions: Streptococcus viridans
S.aureus MRSA = test: as above; format: cell-based; conditions: Staphylococcus aureus, medium MHA (Mueller Hinton Agar) +NaCl
Protocol: as §1

E.faecalis [2] = test: as above; format: cell-based; conditions: Enterococcus faecalis, medium MHA
Protocol: as §1

Escherichia coli 25922 = test: Efficacy against systemic infections (septicemia) in mice; format: in vivo; conditions: 96 h, Escherichia coli 25922, po (orally) 1 and 3 h after challenge, survival day 4
Protocol: Septicemia was induced in outbred Swiss albino mice (Jbm MoRo [specific pathogen free]; weight 16 to 20 g, Biomedical Research Laboratories, Füllinsdorf, Switzerland). Mice were infected by intraperitoneal injection of diluted overnight cultures of the test organisms. Bacterial challenge doses were 4-10 times the number of organisms required to kill 50% of untreated animals within 48 h. The test compounds were administered p.o. or s.c. 1 and 3 h after the bacterial challenge. To treat the infection with Pseudomonas aeruginosa BA an additional dose was given 5 h after challenge. Control and treatment groups at each dose were composed of five mice each. The 50% effective dose (ED50, in milligrams per kilogram) was calculated by probit analysis as described by Finney (Finney, D.J. 1978, Statistical method in biological assay, 3rd ed. Charles Griffin & Co., Ltd., London), from the survival rates on day 4 after infection.

M.catarrhalis = test: In vitro activity against selected species (MIC50, MIC90, range); format: cell-based; conditions: Moraxella catarrhalis, medium IsoB
L.monocytogenes BK23 = test: Antibacterial spectrum (MIC), agar dilution; format: cell-based; conditions: Listeria monocytogenes, read-out: MIC
Protocol: as §1

[3] = medium IsoB (Isosensitest Broth)

CC(C)(C)N1CC/C(=C\C2=C(C(=O)O)N3C(=O)[C@@H](NC(=O)/C(=N\O)c4csc(N)n4)[C@H]3SC2)C1=O [J]
MIC (E.faecalis [1]; MIC range): 0.5 to 4 µg/mL (≈ 0.96 to 7.68 µM) | MIC50 (E.faecalis [1]): 2 µg/mL (≈ 3.84 µM) | MIC90 (E.faecalis [1]): 2 µg/mL (≈ 3.84 µM) | MIC (S.pyogenes B15): < 0.06 µg/mL | MIC (S.viridans group 016): 1 µg/mL (≈ 1.92 µM) | MIC (C.freundii 43): 4 µg/mL (≈ 7.68 µM) | MIC (H.influenzae 1): 0.25 µg/mL (≈ 0.48 µM) | MIC (P.vulgaris 1028): 0.5 µg/mL (≈ 0.96 µM) | MIC (S.pneumoniae Q19): 0.12 µg/mL (≈ 0.231 µM) | MIC (E.faecalis 6): 2 µg/mL (≈ 3.84 µM) | MIC (E.cloacae 908SSi): 2 µg/mL (≈ 3.84 µM) | MIC (S.aureus 734 MRSA): 16 µg/mL (≈ 30.7 µM) | MIC (S.marcescens 69438): 1 µg/mL (≈ 1.92 µM) | MIC (Acinetobacter sp.51-156): > 32 µg/mL | MIC (K.pneumoniae 418): 1 µg/mL (≈ 1.92 µM) | MIC (P.aeruginosa 27853): > 32 µg/mL | MIC (C.freundii 902): 0.5 µg/mL (≈ 0.96 µM) | MIC (E.cloacae 908R): 8 µg/mL (≈ 15.4 µM) | MIC (N.meningitidis 69480): 0.12 µg/mL (≈ 0.231 µM) | MIC (S.aureus 6538): 1 µg/mL (≈ 1.92 µM) | MIC (E.coli 25922): 0.5 µg/mL (≈ 0.96 µM) | MIC (S.agalactiae QK44): 0.25 µg/mL (≈ 0.48 µM) | MIC (P.mirabilis 2117): 0.12 µg/mL (≈ 0.231 µM) | MIC (M.morganii 6H-137): 0.25 µg/mL (≈ 0.48 µM) | MIC (M.catarrhalis RA21): 16 µg/mL (≈ 30.7 µM) | MIC (X.maltophilia 1AC739): > 32 µg/mL | MIC (S.aureus MSSA; MIC range): 0.5 to 2 µg/mL (≈ 0.96 to 3.84 µM) | MIC50 (S.aureus MSSA): 1 µg/mL (≈ 1.92 µM) | MIC90 (S.aureus MSSA): 2 µg/mL (≈ 3.84 µM) | MIC (S.pneumoniae PEN-R; [3]): 0.12 to 0.5 µg/mL (≈ 0.231 to 0.96 µM) | MIC (S.pneumoniae PEN-R; medium IsoB + 20% serum): 0.1 to 1 µg/mL | MIC50 (S.pneumoniae PEN-R; [3]): 0.25 µg/mL (≈ 0.48 µM) | MIC90 (S.pneumoniae PEN-R; [3]): 0.5 µg/mL (≈ 0.96 µM) | MIC50 (S.pneumoniae PEN-R; medium IsoB + 20% serum): 0.5 µg/mL | MIC (E.faecium; MIC range): 2 to 32 µg/mL (≈ 3.84 to 61.5 µM) | MIC50 (E.faecium): 4 µg/mL (≈ 7.68 µM) | MIC50 (S.viridans group): 2 µg/mL (≈ 3.84 µM) | MIC90 (S.viridans group): 4 µg/mL (≈ 7.68 µM) | MIC (S.viridans group; MIC range): 0.12 to 8 µg/mL (≈ 0.231 to 15.4 µM) | MIC (S.aureus MRSA; MIC range): 16 to 32 µg/mL (≈ 30.7 to 61.5 µM) | MIC50 (S.aureus MRSA): 32 µg/mL (≈ 61.5 µM) | MIC90 (S.aureus MRSA): 32 µg/mL (≈ 61.5 µM) | MIC (E.faecalis [2]; MIC range): 1 to 8 µg/mL (≈ 1.92 to 15.4 µM) | MIC50 (E.faecalis [2]): 2 µg/mL (≈ 3.84 µM) | MIC90 (E.faecalis [2]): 4 µg/mL (≈ 7.68 µM) | ED50 (Escherichia coli 25922): > 2 mg/kg | MIC (M.catarrhalis; MIC range): 2 to 32 µg/mL (≈ 3.84 to 61.5 µM) | MIC50 (M.catarrhalis): 8 µg/mL (≈ 15.4 µM) | MIC90 (M.catarrhalis): 16 µg/mL (≈ 30.7 µM)

C=CCN1CC/C(=C\C2=C(C(=O)O)N3C(=O)[C@@H](NC(=O)/C(=N\O)c4csc(N)n4)[C@H]3SC2)C1=O [L, [6R-[3(E),6α,7β(Z)]]-3-[[1-Allyl-2-oxo-3-pyrrolidinylidene]methyl]-7-[[(2-amino-4-thiazolyl)(hydroxyimino)acetyl]amino]-8-oxo-5-thia-1-azabicyclo[4.2.0]oct-2-ene-2-carboxylic acid]
MIC (S.pyogenes B15): ≤ 0.06 µg/mL | MIC (S.viridans group 016): 1 µg/mL (≈ 1.98 µM) | MIC (C.freundii 43): 4 µg/mL (≈ 7.93 µM) | MIC (H.influenzae 1): 0.5 µg/mL (≈ 0.991 µM) | MIC (P.vulgaris 1028): 2 µg/mL (≈ 3.96 µM) | MIC (S.pneumoniae Q19): ≤ 0.06 µg/mL | MIC (E.faecalis 6): 2 µg/mL (≈ 3.96 µM) | MIC (E.cloacae 908SSi): 0.25 µg/mL (≈ 0.495 µM) | MIC (S.aureus 734 MRSA): 16 µg/mL (≈ 31.7 µM) | MIC (S.marcescens 69438): 1 µg/mL (≈ 1.98 µM) | MIC (Acinetobacter sp.51-156): 16 µg/mL (≈ 31.7 µM) | MIC (L.monocytogenes BK23): 4 µg/mL (≈ 7.93 µM) | MIC (K.pneumoniae 418): 0.12 µg/mL (≈ 0.238 µM) | MIC (P.aeruginosa 27853): 16 µg/mL (≈ 31.7 µM) | MIC (C.freundii 902): ≤ 0.06 µg/mL | MIC (E.cloacae 908R): 16 µg/mL (≈ 31.7 µM) | MIC (N.meningitidis 69480): ≤ 0.06 µg/mL | MIC (S.aureus 6538): 1 µg/mL (≈ 1.98 µM) | MIC (E.coli 25922): ≤ 0.06 µg/mL | MIC (S.agalactiae QK44): 0.25 µg/mL (≈ 0.495 µM) | MIC (P.mirabilis 2117): ≤ 0.06 µg/mL | MIC (M.morganii 6H-137): ≤ 0.06 µg/mL | MIC (M.catarrhalis RA21): 8 µg/mL (≈ 15.9 µM) | MIC (X.maltophilia 1AC739): > 32 µg/mL
